The values that follow are results of earlier work, collected in patent US9913866B2, “Selective cell targeting using adenovirus and chemical dimers” (priority 2012, dated 2018).

For data set [1], the target named is FKBP and a mutant FRB domain (mTOR mutation T2098L) (Homo sapiens, UniProt P42345+P62942, T2098L).
The target in data set [2] is FKBP and wt FRB domain (Homo sapiens, UniProt P62942).
FKBP and wt FRB domain, sequence (P62942 2-108 limits assumed): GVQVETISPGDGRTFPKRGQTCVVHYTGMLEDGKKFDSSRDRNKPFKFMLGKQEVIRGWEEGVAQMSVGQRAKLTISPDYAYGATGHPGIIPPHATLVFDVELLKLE

FKBP and a mutant FRB domain (mTOR mutation T2098L), sequence (P42345 2012-2144 T2098L limits assumed): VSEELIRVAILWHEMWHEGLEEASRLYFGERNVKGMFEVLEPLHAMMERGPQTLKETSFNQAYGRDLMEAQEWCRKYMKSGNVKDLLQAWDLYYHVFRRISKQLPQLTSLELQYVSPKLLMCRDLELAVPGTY
FKBP and a mutant FRB domain (mTOR mutation T2098L), sequence (P62942 2-108 limits assumed): as the sequence (P62942 2-108 limits assumed) above

In the case of `CO[C@H]1[C@@H](O)[C@H](C)C[C@H](C)/C=C/C=C/C=C(\C)[C@@H](c2c[nH]c3c(C)cccc23)C[C@@H]2CC[C@@H](C)[C@@](O)(O2)C(=O)C(=O)N2CCCC[C@H]2C(=O)O[C@H]([C@H](C)C[C@@H]2CC[C@@H](O)[C@H](OC)C2)C[C@H](O)[C@H](C)/C=C(\C)[C@H]1O` [AP21967], the heterodimer formation entry in data set [1] is “able to form stable heterodimers”; in data set [2], “not with the wt FRB domain”.
